Laboratory results published in US11365199B2, “Pyrazole compounds as modulators of FSHR and uses thereof” (Merck Patent GmbH, priority 2013, dated 2022).

Columns and labels:
[1] = target: T1, follicle-stimulating hormone (FSH) receptor (Rattus norvegicus, UniProt P20395); assay: Rat granulosa EC50 FSH (Assay B); type: cell-based; details: for EC50: rat granulosa cells, read-out: Assay B: Rat granulosa EC50 FSH
T1 construct: endogenous in cells; host or cells: primary rat granulosa cells
T1 sequence (P20395 18-692): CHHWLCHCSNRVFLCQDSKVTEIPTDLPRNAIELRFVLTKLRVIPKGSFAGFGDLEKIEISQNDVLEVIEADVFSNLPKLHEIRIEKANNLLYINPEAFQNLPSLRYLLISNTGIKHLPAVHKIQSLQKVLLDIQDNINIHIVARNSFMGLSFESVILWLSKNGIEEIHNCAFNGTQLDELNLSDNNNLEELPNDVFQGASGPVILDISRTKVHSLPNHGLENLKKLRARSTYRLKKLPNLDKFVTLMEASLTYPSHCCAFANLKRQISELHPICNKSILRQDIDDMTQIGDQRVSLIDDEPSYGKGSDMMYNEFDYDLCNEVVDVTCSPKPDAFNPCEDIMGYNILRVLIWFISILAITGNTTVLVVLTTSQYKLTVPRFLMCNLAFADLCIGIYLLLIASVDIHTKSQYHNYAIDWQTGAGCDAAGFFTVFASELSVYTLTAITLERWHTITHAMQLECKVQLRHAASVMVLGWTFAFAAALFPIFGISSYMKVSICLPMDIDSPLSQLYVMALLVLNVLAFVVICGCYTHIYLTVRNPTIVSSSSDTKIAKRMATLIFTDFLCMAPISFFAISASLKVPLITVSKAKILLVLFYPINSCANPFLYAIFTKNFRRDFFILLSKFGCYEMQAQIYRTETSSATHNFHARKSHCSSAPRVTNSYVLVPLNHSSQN
Method: Rat Granulosa EC50 FSH (Assay B)
The assay was performed pursuant to the teaching of Yanofsky et al. (2006) Allosteric activation of the follicle-stimulating hormone (FSH) receptor by selective, nonpeptide agonists (JBC 281(19): 13226-13233, which is incorporated by reference in the disclosure of the invention).

FSHR = target: T2, FSHR (Homo sapiens, UniProt P23945); assay: EC50 of cyclic AMP production in CHO FSHR cells + EC20 FSH (Assay A); type: cell-based; details: CHO FSHR cells + EC20 FSH, cAMP HTRF; read-out: Assay A: EC50 of cyclic AMP production
T2 construct: expressed in transfected cells; host or cells: CHO (Cho-FSHR-LUC-1-1-43)
T2 sequence (P23945 18-695): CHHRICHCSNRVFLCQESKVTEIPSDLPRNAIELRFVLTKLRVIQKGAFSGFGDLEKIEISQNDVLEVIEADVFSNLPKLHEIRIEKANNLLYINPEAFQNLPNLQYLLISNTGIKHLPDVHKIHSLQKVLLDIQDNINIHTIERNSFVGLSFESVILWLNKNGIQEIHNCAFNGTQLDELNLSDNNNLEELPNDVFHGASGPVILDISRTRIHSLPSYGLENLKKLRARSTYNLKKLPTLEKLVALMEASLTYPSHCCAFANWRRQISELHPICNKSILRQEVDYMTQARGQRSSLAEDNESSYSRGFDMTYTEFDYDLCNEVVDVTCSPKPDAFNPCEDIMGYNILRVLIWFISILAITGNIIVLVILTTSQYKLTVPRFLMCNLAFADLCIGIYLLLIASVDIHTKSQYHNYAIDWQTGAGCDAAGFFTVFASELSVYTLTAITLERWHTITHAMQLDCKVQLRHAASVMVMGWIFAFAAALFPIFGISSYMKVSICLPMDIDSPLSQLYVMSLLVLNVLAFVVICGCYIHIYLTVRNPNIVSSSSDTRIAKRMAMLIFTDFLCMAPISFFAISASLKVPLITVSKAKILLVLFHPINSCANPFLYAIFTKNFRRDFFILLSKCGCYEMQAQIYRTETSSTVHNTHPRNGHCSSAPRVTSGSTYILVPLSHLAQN
How it was run: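 cAMP HTRF read-out (665 nm/620 nm ratio) after 1 h at 37° C of Cho-FSHR-LUC cells treated with serially diluted test compound plus EC20 FSH ([…]) and IBMX (final 200 μM). Responses given as percent of maximal FSH-standard effect.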

Question: What does the source list for `COc1cc2c(cc1-c1ccn(C)c1)-c1c(c(C(=O)N3CCOCC3(C)C)nn1-c1ccsc1)CO2` [Compound 98, (3,3-Dimethyl-morpholin-4-yl)-[7-methoxy-8-(1-methyl-1H-pyrrol-3-yl)-1-thiophen-3-yl-1,4-dihydro-chromeno[4,3-c]pyrazol-3-yl]-methanone]?
Answer: EC50 [1]: 1000 to 5000 nM; EC50 (FSHR): < 100 nM

Question: How did the Emax at 30 µM ([1]; @ 30 μM, read-out: Assay B: percental effect (response) relative to the maximum response of the FSH standard) turn out when `COc1cc2c(cc1C=C(C)C)-c1c(c(C(=O)NCCCN3CCOC3=O)nn1-c1ccsc1)CO2` [Compound 9, 7-Methoxy-8-(2-methyl-propenyl)-1-thiophen-3-yl-1,4-dihydro-chromeno[4,3-c]pyrazole-3-carboxylic acid [3-(2-oxo-oxazolidin-3-yl)-propyl]-amide] was run?
Answer: Its Emax at 30 µM is 40.5%.

Question: And the EC50 (FSHR)?
Answer: The EC50 was 1000 to 5000 nM.

Question: For `COc1cc2c(cc1-c1ncco1)-c1c(c(C(=O)N(C)C(C)(C)C)nn1-c1ccsc1)CO2` [Compound 132, 7-Methoxy-8-oxazol-2-yl-1-thiophen-3-yl-1,4-dihydro-chromeno[4,3-c]pyrazole-3-carboxylic acid tert-butyl-methyl-amide], which EC50 [1] is on record?
Answer: The EC50 was 100 to 1000 nM.

Question: And the EC50 (FSHR)?
Answer: The EC50 was < 100 nM.

Question: Which results are given for `COc1cc2c(cc1C=C(C)C)-c1c(c(C(=O)NC(C)(C)CO)nn1-c1ccsc1)CO2` [Compound 10, 7-Methoxy-8-(2-methyl-propenyl)-1-thiophen-3-yl-1,4-dihydro-chromeno[4,3-c]pyrazole-3-carboxylic acid (2-hydroxy-1,1-dimethyl-ethyl)-amide]?
Answer: EC50 [1]: 1000 to 5000 nM; EC50 (FSHR): 100 to 1000 nM

Question: `[2H]C([2H])([2H])OCC1(C)CCCN1C(=O)c1nn(-c2ccsc2)c2c1COc1cc(OC)c(-c3ccn(C)c3)cc1-2` (stereo not shown) [Compound 184] was tested. Which EC50 [1] did it give?
Answer: Its EC50 is < 100 nM.

Question: And the EC50 (FSHR)?
Answer: Its EC50 is < 100 nM.

Question: What does the source list for `COc1cc2c(cc1-c1ccn(C)c1)-c1c(c(C(=O)N3CCN(C)CC3(C)C)nn1-c1ccsc1)CO2` [Compound 160, [7-Methoxy-8-(1-methyl-1H-pyrrol-3-yl)-1-thiophen-3-yl-1,4-dihydro-chromeno[4,3-c]pyrazol-3-yl]-(2,2,4-trimethyl-piperazin-1-yl)-methanone]?
Answer: EC50 [1]: < 100 nM; EC50 (FSHR): < 100 nM

Question: `COC(=O)C1CCCN(C(=O)c2nn(-c3ccsc3)c3c2COc2cc(OC)c(OC(C)C)cc2-3)CC1` (stereo not shown) [Compound 24, 1-(8-Isopropoxy-7-methoxy-1-thiophen-3-yl-1,4-dihydro-chromeno[4,3-c]pyrazole-3-carbonyl)-azepane-4-carboxylic acid methyl ester] was tested. Which EC50 [1] did it give?
Answer: The EC50 was 1000 to 5000 nM.

Question: What about the EC50 (FSHR) of the same compound?
Answer: Its EC50 is < 100 nM.

Question: Which EC50 [1] does the source give for `[2H]C([2H])([2H])OCC1(C)CCCN1C(=O)c1nn(-c2ccsc2)c2c1COc1cc(OC)c(-c3ccn(C)n3)cc1-2` (stereo not shown) [Compound 182] here?
Answer: Its EC50 is < 100 nM.

Question: And the EC50 (FSHR)?
Answer: Its EC50 is < 100 nM.

Question: For `COc1cc2c(cc1-c1cn(C)nn1)-c1c(c(C(=O)N(C)C(C)(C)C)nn1-c1ccsc1)CO2` [Compound 153, 7-Methoxy-8-(1-methyl-1H-[1,2,3]triazol-4-yl)-1-thiophen-3-yl-1,4-dihydro-chromeno[4,3-c]pyrazole-3-carboxylic acid tert-butyl-methyl-amide], which EC50 [1] is on record?
Answer: Its EC50 is < 100 nM.

Question: And the EC50 (FSHR)?
Answer: The EC50 was < 100 nM.

Question: Which EC50 [1] does the source give for `COc1cc2c(cc1-c1ccnn1C)-c1c(c(C(=O)N3CCOCC3(C)C)nn1-c1ccsc1)CO2` [Compound 108, (3,3-Dimethyl-morpholin-4-yl)-[7-methoxy-8-(2-methyl-2H-pyrazol-3-yl)-1-thiophen-3-yl-1,4-dihydro-chromeno[4,3-c]pyrazol-3-yl]-methanone] here?
Answer: Its EC50 is 1000 to 5000 nM.

Question: And the EC50 (FSHR)?
Answer: The EC50 was < 100 nM.

Question: `[2H]C([2H])([2H])N(C(=O)c1nn(-c2ccsc2)c2c1COc1cc(OC)c(-c3ccn(C)c3)cc1-2)C1(C)COC1` [Compound 115] was tested. Which EC50 [1] did it give?
Answer: The EC50 was 100 to 1000 nM.

Question: What about the EC50 (FSHR) of the same compound?
Answer: Its EC50 is < 100 nM.

Question: Which results are given for `COc1cc2c(cc1-c1cn[nH]c1)-c1c(c(C(=O)N(C)C(C)(C)C)nn1-c1ccsc1)CO2` [Compound 1, 7-Methoxy-8-(1H-pyrazol-4-yl)-1-thiophen-3-yl-1,4-dihydro-chromeno[4,3-c]pyrazole-3-carboxylic Acid tert-butyl-methyl-amide]?
Answer: EC50 [1]: < 100 nM; EC50 (FSHR): < 100 nM

Question: For `[2H]C([2H])([2H])OCC1(N(C(=O)c2nn(-c3ccsc3)c3c2COc2cc(OC)c(S(=O)(=O)C(C)C)cc2-3)C([2H])([2H])[2H])COC1` [Compound 200], which EC50 [1] is on record?
Answer: The EC50 was > 5000 nM.

Question: And the EC50 (FSHR)?
Answer: Its EC50 is < 100 nM.

Question: With `[2H]C([2H])([2H])OCC1(N(C(=O)c2nn(-c3ccsc3)c3c2COc2cc(OC)c(-c4ccnn4C)cc2-3)C([2H])([2H])[2H])COC1` [Compound 119] as the compound, how does the EC50 [1] read?
Answer: Its EC50 is 1000 to 5000 nM.

Question: And the EC50 (FSHR)?
Answer: The EC50 was < 100 nM.

Question: How did the EC50 [1] turn out when `COc1cc2c(cc1CC(C)C)-c1c(c(C(=O)N(C)C(C)(C)C)nn1-c1cccs1)CO2` [Compound 91, 8-Isobutyl-7-methoxy-1-thiophen-2-yl-1,4-dihydro-chromeno[4,3-c]pyrazole-3-carboxylic Acid tert-butyl-methyl-amide] was run?
Answer: The EC50 was 1000 to 5000 nM.

Question: And the EC50 (FSHR)?
Answer: The EC50 was < 100 nM.

Question: What does the source list for `COc1cc2c(cc1CNC(C)=O)-c1c(c(C(=O)N3CCOCC3(C)C)nn1-c1ccsc1)CO2` [Compound 175, N-[3-(3,3-Dimethyl-morpholine-4-carbonyl)-7-methoxy-1-thiophen-3-yl-1,4-dihydro-chromeno[4,3-c]pyrazol-8-ylmethyl]-acetamide]?
Answer: EC50 [1]: > 5000 nM; EC50 (FSHR): 100 to 1000 nM

Question: What does the source list for `COc1cc2c(cc1C(N)=O)-c1c(c(C(=O)N(C)C(C)(C)C)nn1-c1ccsc1)CO2` [Compound 50, 7-Methoxy-1-thiophen-3-yl-1,4-dihydro-chromeno[4,3-c]pyrazole-3,8-dicarboxylic Acid 8-amide 3-(tert-butyl-methyl-amide)]?
Answer: EC50 [1]: 100 to 1000 nM; EC50 (FSHR): < 100 nM

Question: Which results are given for `COc1cc2c(cc1C=C(C)C)-c1c(c(C(=O)NCCNC(C)=O)nn1-c1ccsc1)CO2` [Compound 7, 7-Methoxy-8-(2-methyl-propenyl)-1-thiophen-3-yl-1,4-dihydro-chromeno[4,3-c]pyrazole-3-carboxylic Acid (2-acetylamino-ethyl)-amide]?
Answer: Emax at 6 µM ([1]; @ 6 μM, read-out: Assay B: percental effect (response) relative to the maximum response of the FSH standard): 43.5%; EC50 (FSHR): 1000 to 5000 nM

Question: With `[2H]C([2H])([2H])OCC1(N(C(=O)c2nn(-c3ccsc3)c3c2COc2cc(OC)c(-c4ccn(C)n4)cc2-3)C([2H])([2H])[2H])COC1` [Compound 114] as the compound, how does the EC50 [1] read?
Answer: Its EC50 is 1000 to 5000 nM.

Question: And the EC50 (FSHR)?
Answer: Its EC50 is < 100 nM.

Question: How did the EC50 [1] turn out when `[2H]C([2H])([2H])OCC(C)(C)N(C(=O)c1nn(-c2ccsc2)c2c1COc1cc(OC)c(CC(C)C)cc1-2)C([2H])([2H])[2H]` [Compound 83] was run?
Answer: Its EC50 is 100 to 1000 nM.

Question: And the EC50 (FSHR)?
Answer: Its EC50 is < 100 nM.

Question: Which EC50 [1] does the source give for `COc1cc2c(cc1C1=CCOC1)-c1c(c(C(=O)N(C)C(C)(C)C)nn1-c1ccsc1)CO2` [Compound 151, 8-(2,5-Dihydro-furan-3-yl)-7-methoxy-1-thiophen-3-yl-1,4-dihydro-chromeno[4,3-c]pyrazole-3-carboxylic acid tert-butyl-methyl-amide] here?
Answer: Its EC50 is 100 to 1000 nM.

Question: And the EC50 (FSHR)?
Answer: Its EC50 is < 100 nM.

Question: For `[2H]C([2H])([2H])N(CCN1CCOC1=O)C(=O)c1nn(-c2ccsc2)c2c1COc1cc(OC)c(CC(C)C)cc1-2` [Compound 214], which EC50 [1] is on record?
Answer: The EC50 was 1000 to 5000 nM.

Question: And the EC50 (FSHR)?
Answer: The EC50 was < 100 nM.

Question: `COc1cc2c(cc1-c1cn(C)nc1C)-c1c(c(C(=O)N(C)C(C)(C)C)nn1-c1ccsc1)CO2` [Compound 150, 8-(1,3-Dimethyl-1H-pyrazol-4-yl)-7-methoxy-1-thiophen-3-yl-1,4-dihydro-chromeno[4,3-c]pyrazole-3-carboxylic acid tert-butyl-methyl-amide] was tested. Which EC50 [1] did it give?
Answer: Its EC50 is 100 to 1000 nM.

Question: What about the EC50 (FSHR) of the same compound?
Answer: The EC50 was < 100 nM.
